Measurements taken from ChEMBL document CHEMBL1687942, “Benzimidazole inhibitors induce a DFG-out conformation of never in mitosis gene A-related kinase 2 (Nek2) without binding to the back pocket and reveal a nonlinear structure-activity relationship” (J Med Chem, 2011).
pIC50: −log10 of the molar value. The source made the active and inactive calls. The calls are words filed in the database; no cut-off is given here.

Experiments:
[1] = target: T1, Serine/threonine-protein kinase PLK1 (Homo sapiens, UniProt P53350); experiment: Inhibition of polo-like kinase 1 activity at 100 uM
T1 sequence (P53350 whole entry): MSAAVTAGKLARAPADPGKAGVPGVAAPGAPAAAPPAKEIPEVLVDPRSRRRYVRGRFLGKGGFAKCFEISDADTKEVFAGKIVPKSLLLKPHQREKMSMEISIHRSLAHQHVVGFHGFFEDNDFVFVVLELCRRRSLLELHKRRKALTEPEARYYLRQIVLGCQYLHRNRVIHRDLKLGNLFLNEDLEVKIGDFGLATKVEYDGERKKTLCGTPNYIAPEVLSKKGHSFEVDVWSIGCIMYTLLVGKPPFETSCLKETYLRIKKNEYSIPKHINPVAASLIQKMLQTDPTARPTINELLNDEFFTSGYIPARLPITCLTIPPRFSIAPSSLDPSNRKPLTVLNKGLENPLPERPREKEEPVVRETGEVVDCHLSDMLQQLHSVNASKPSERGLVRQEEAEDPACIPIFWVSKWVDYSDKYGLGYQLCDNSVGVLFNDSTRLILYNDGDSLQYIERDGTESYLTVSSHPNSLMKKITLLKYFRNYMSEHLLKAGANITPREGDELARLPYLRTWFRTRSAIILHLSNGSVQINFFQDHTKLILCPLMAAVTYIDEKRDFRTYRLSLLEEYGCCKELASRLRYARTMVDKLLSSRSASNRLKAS

[2] = target: T2, Serine/threonine-protein kinase Nek2 (Homo sapiens) (UniProt P51955); experiment: Inhibition of NEK2 at 200 uM
T2 sequence (whole entry): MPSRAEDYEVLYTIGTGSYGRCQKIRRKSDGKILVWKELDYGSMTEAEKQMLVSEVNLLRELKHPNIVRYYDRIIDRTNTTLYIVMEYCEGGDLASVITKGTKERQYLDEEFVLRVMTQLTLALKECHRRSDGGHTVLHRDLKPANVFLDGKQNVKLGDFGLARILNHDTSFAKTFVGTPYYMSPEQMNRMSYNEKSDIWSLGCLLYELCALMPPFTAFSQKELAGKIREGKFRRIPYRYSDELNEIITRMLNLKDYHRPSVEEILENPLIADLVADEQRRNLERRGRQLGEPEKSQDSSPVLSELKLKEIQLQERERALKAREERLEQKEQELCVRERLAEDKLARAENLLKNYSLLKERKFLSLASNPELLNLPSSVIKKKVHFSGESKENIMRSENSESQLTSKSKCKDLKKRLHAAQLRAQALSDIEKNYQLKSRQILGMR

[3] = Apparent permeability of the compound by PAMPA at pH 7.4
[4] = target: T1, Serine/threonine-protein kinase PLK1; experiment: Inhibition of polo-like kinase 1 activity
[5] = target: T3, Serine/threonine-protein kinase Nek2 (Homo sapiens, UniProt P51955)
T3 sequence (P51955 whole entry): T2 sequence (whole entry)

[6] = target: Tyrosine-protein kinase ABL1 (Mus musculus) (UniProt P00520); experiment: Inhibition of mouse Abl at 2 uM
Chain of Tyrosine-protein kinase ABL1 (Mus musculus) (P00520 whole entry): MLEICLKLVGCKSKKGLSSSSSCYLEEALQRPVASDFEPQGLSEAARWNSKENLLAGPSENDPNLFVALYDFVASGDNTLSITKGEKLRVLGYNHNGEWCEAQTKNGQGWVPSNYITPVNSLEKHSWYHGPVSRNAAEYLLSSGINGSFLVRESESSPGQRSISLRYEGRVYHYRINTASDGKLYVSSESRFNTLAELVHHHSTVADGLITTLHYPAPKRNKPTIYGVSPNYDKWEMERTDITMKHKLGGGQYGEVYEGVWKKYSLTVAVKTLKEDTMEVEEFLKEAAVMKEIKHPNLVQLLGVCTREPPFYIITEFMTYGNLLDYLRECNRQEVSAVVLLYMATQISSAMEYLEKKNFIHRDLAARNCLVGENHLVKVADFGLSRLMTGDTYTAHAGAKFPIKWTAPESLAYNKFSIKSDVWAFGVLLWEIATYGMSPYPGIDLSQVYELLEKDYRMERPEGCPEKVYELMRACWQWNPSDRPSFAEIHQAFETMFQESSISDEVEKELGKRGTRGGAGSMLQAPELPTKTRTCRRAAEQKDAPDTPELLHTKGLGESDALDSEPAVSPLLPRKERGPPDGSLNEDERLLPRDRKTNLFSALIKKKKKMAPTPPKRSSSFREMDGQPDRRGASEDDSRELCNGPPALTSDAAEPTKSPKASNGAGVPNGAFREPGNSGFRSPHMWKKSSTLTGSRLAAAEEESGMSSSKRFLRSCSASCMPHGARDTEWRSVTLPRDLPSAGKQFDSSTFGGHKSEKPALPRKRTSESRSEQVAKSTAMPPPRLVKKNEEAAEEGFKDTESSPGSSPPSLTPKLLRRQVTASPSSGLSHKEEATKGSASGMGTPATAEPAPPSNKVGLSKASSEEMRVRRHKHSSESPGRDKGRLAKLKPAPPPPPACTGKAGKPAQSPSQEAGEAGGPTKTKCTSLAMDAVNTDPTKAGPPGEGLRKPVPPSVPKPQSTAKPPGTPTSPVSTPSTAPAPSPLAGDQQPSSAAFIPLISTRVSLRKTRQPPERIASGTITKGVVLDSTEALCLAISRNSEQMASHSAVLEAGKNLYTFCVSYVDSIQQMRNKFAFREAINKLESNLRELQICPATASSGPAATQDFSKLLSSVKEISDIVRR

[7] = target: T1, Serine/threonine-protein kinase PLK1; conditions: 200 uM
Description: Inhibition of polo-like kinase 1 activity at 200 uM

[8] = target: T3, Serine/threonine-protein kinase Nek2; experiment: Inhibition of NEK2 autophosphorylation preincubated with compound by DELFIA assay
[9] = target: T3, Serine/threonine-protein kinase Nek2; experiment: Inhibition of NEK2 assessed as inhibition of substrate phosphorylation preincubated for 5 mins before addition of substrate by DELFIA assay

CC(Oc1cc(-n2cnc3cc(OC4CCCCC4)ccc32)ccc1C(N)=O)c1ccccc1C(F)(F)F (racemic)
inhibition [1]: inactive
inhibition [2]: inactive

C[C@@H](Oc1cc(-n2cnc3cc(OC4CCN(C)CC4)ccc32)ccc1C(N)=O)c1ccccc1C(F)(F)F
Papp [3]: 33.4 ×10⁻⁶ cm/s
pIC50 [4]: 4.29

CN1CCC(Oc2ccc3ncn(-c4cc(OCc5ccccc5C(F)(F)F)c(C(N)=O)s4)c3c2)CC1
pIC50 [4]: > 8.05

CN1CCC(Oc2ccc3ncn(-c4cc(OCc5ccccc5)c(C(N)=O)s4)c3c2)CC1
pIC50 [5]: 5.27
pIC50 [4]: 7.16

CC(Oc1cc(-n2cnc3ccccc32)sc1C(N)=O)c1ccccc1C(F)(F)F (racemic)
pIC50 [5]: < 4.30
pIC50 [4]: > 8.05

CC(Oc1cc(-n2cnc3cc(OC4CCN(C)CC4)ccc32)ccc1C(N)=O)c1ccccc1C(F)(F)F (racemic)
inhibition [6]: Active
pIC50 [4]: 4.06

COc1cc(-n2cnc3ccccc32)sc1C(N)=O
pIC50 [5]: 4.07
pIC50 [4]: 5.27

CC(Oc1cc(-n2cnc3ccc(OC4CCN(C)CC4)cc32)ccc1C(N)=O)c1ccccc1C(F)(F)F (racemic)
pIC50 [5]: 6.18
pIC50 [4]: 6.72

C[C@H](Oc1cc(-n2cnc3cc(OC4CCN(C)CC4)ccc32)ccc1C(N)=O)c1ccccc1C(F)(F)F
inhibition [7]: inactive

CC(Oc1cc(-n2cnc3ccc(OC4CCN(C)CC4)cc32)sc1C(N)=O)c1ccccc1C(F)(F)F (racemic)
pIC50 [8]: 7.30
pIC50 [9]: 6.70

CC(Oc1cc(-n2cnc3cc(OC4CCN(C5CC5)CC4)ccc32)ccc1C(N)=O)c1ccccc1C(F)(F)F (racemic)
inhibition [1]: inactive
pIC50 [5]: 5.59

CC(Oc1cc(-n2cnc3cc(OCCCN(C)C)ccc32)ccc1C(N)=O)c1ccccc1C(F)(F)F (racemic)
pIC50 [5]: 6.42
pIC50 [4]: 4.82

COc1cc(-n2cnc3ccc(OC4CCN(C)CC4)cc32)sc1C(N)=O
pIC50 [5]: 4.19
pIC50 [4]: 5.88

CC(Oc1cc(-n2cnc3ccc(OC4CCN(C)CC4)cc32)sc1C(N)=O)c1ccccc1 (racemic)
pIC50 [5]: 5.18
pIC50 [4]: 7.18
